According to patent publication US20220213030A1, “AMINOGUANIDINE HYDRAZONES AS RETROMER STABILIZERS USEFUL FOR TREATING NEUROLOGICAL DISEASES” (OSPEDALE SAN RAFFAELE SRL, priority 2019, published 2022):
Entries after “also recorded” stand apart in the source; their conditions may differ.

Columns and labels:
[1] = molecular target: T1, VPS35 (Mus musculus, UniProt Q9EQH3+Q9QZ88); experiment: VPS35 western blot in spinal cord extracts of G93A mice; format: in vivo; settings: 10 mg/kg, day 100
Experimental: (§1) Lumbar spinal cords were dissected from saline perfused mice and rapidly homogenized in the following lysis buffer: Tris-HCl 10 mM pH 8, EDTA pH 8 1 mM, NaCl 100 mM, NP40 1% and protease inhibitor cocktail (Sigma). Protein extracts were obtained using a tight-fitting glass Potter tissue grinder (1 ml; Wheaton) and then sonicated at a frequency of 20 kHz (10 times-1s). Protein lysates from cells cultures were obtained from plates receiving PBS1× washing and subsequently the lysis buffer followed by sonication. Protein concentrations were measured by BCA protein assay kit (Thermofisher) according to the manufacturer's recommendations. Ten μg of protein extract was loaded on 10% Mini-PROTEAN TGX Stain-Free precast gels for PAGE (Bio-Rad). Gel electrophoresis was performed at 100 V for 2 hours. Gels were transferred on Immobilon®-P PVDF membrane according to the manufacturer's instructions (Millipore). Blots were blocked in 5% BSA in Tris buffered saline plus 0.1% Tween-20 (TBS-T) for 1 hour before receiving primary antibodies: goat α-VPS35 1:800 (ab10099, Abcam); rabbit α-VPS26b 1:1000 (15915-1-AP, ProteinTech); rabbit α-VPS29 1:1000 (ab236796 Abcam); mouse α-βActin 1:25000 (Sigma); mouse α-Golgin97 1:1000 (Invitrogen); mouse α-Ubiquitin 1:500 (Merk) overnight at 4° C. on shaker. […] Quantifications were done using the Image Lab 6.0.1 software (Bio-Rad).

[2] = system: VPS26b; experiment: VPS26b western blot in spinal cord extracts of G93A mice; format: in vivo, mouse; settings: 10 mg/kg, day 100
Experimental: as §1

[3] = molecular target: T1, VPS35; experiment: VPS35 levels in Neuro2a cells by Western blot (screening of amino guanidine hydrazones); format: cell-based; set-up: endogenous in cells; host or cells: Neuro2a; settings: 48 hours
Experimental: To functionally screen the majority of synthetized amino guanidine hydrazones of the invention and determine their effects on the retromer complex, we incubated Neuro2a cells with each synthetized molecule at the concentration of 10 μM.
The test was executed in triplicate for each tested compound of the invention, cells lysates were established after 48 hours' incubation, and levels of VPS35 were normalized on the housekeeping gene β-Actin by Western blot. We observed a preliminary SAR among the compounds.
Fold changes are calculated over normalized VPS35 levels measured in vehicle-treated cells.
Neuro2a cells were seeded on 12 wells multiwell at the concentration of 100 000 cells/well. Cells were incubated with each compound, including the standard R55, at 10 μM for 48 hours. Cells were then washed in PBS 1× and lysed in a buffer containing Tris-HCl 10 mM pH8, EDTA 1 mM pH8, NaCl 100 mM, NP40 1%, with protease inhibitor cocktail (Sigma) 1×. Using a cell scraper total lysates were collected from each well, quantified with BCA (BCA protein assay, Thermofisher). Five μg were resolved on precast 10% acrylamide gel (Biorad). Proteins were transferred to a PVDF membrane (Millipore) and western blot were performed using the following antibodies: goat αVPS35 (1:1000), mouse α-βActin (1:10000). Detection of proteins was obtained by a chemiluminescence detection kit (PerkinElmer).

[4] = molecular target: T1, VPS35; experiment: VPS35 levels in spinal cord extracts of C57BL6J mice by western blot; format: in vivo; set-up: Lumbar spinal cords were dissected from saline perfused mice and rapidly homogenized; from tissue; host or cells: lumbar spinal cord of mice; settings: 10 mg/kg daily intraperitoneal for 7 days
Experimental: We next asked whether the compound 2a can cross the blood brain barrier (BBB) of the brain. We run a pharmacokinetic assay on C57BL6J mice that received daily intraperitoneal injections of compound 2a (10 mg/Kg/day). Mice were sacrificed after 1, 7, 15 and 30 days saline perfused to avoid the CNS contamination of compounds contained in blood circulation and brains used for the determination of compound 2a levels by mass spectrometry. […] We next investigated in vivo if the retromer stabilization occurs in response to Compound 2a treatment. We intraperitoneally injected R55 and Compound 2a in adult C57BL6J mice as above described. After one week, mice were sacrificed, proteins extracts were assayed by western blot.
Lumbar spinal cords were dissected from saline perfused mice and rapidly homogenized in the following lysis buffer: Tris-HCl 10 mM pH 8, EDTA pH 8 1 mM, NaCl 100 mM, NP40 1% and protease inhibitor cocktail (Sigma). Protein extracts were obtained using a tight-fitting glass Potter tissue grinder (1 ml; Wheaton) and then sonicated at a frequency of 20 kHz (10 times-1s). […] Protein concentrations were measured by BCA protein assay kit (Thermofisher) according to the manufacturer's recommendations. […] Quantifications were done using the Image Lab 6.0.1 software (Bio-Rad).

For `N=C(N)NN=Cc1cccc(C=NNC(=N)N)c1` [Compound 2a, 1,3-Bis-amino guanidine phenyl hydrazone], the “VPS35 levels in SC extracts (WB)” value [1] was “increase VPS35 and VPS26b levels”, the “VPS26b levels in SC extracts (WB)” value [2] was “increase VPS35 and VPS26b levels” and the “Mean fold changes (VPS35 levels normalized on β-Actin, over vehicle-treated cells)” value ([3]; 10 μM, independent cultures n=3) was 1.951. The “VPS35 levels (in words)” value ([3]; compounds at 10 μM) was “able to consistently increase VPS35 levels with a limited variability among replicates; also recorded: increased” and the “VPS35 levels in SC extracts (ratio versus vehicle-treated mice)” value [4] was “≈ 1.7”.
